This is an account of results in ChEMBL document CHEMBL1201862, “PubChem BioAssay data set” (2004).

Holding throughout (test): growth of human tumour cells (NCI), 48 h
Assay [1] concerns SF-539.
The test system of assay [2] is NCI/ADR-RES.
The subject of assay [3] is KM12.
In assay [4] the test system is ACHN.
The subject of assay [5] is HCT-15.
The subject of assay [6] is HL-60.
For assay [7], the system named is SF-295.
Assay [8] deals with SW-620.
Assay [9] deals with UACC-257.
The test system of assay [10] is T47D.
Assay [11] relates to SNB-19.
The test system of assay [12] is U-251.
The subject of assay [13] is BT-549.
Assay [14] has as its system SK-OV-3.
The subject of assay [15] is HCT-116.
Assay [16] deals with OVCAR-5.
In assay [17] the test system is PC-3.
In assay [18] the test system is MDA-MB-231.
In assay [19] the test system is NCI-H23.
The subject of assay [20] is OVCAR-4.

Where a name gives a salt, the structure may show the parent alone.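 Cells were grown in 96-well plates and exposed to each compound for 48 hours at five concentrations; endpoints were interpolated linearly between bracketing concentrations, or set to the highest concentration if not reached. The concentration for 50% growth inhibition is given as GI50.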 Activity calls are given as the source filed them. Rule as the data show it: active = GI50 up to about 1.1 µM and inactive = higher. Square brackets hold non-standard residues; d marks the D form. Peptide text beside a SMILES is read from it.

Turning to `C=C1[C@@H](C)[C@H]2[C@H](Cc3ccccc3)NC(=O)[C@]23OC(=O)/C=C/[C@H](O)CCC[C@@H](C)C/C=C/[C@H]3[C@@H]1O`, the GI50 in assay [1] was 0.465 µM (active); in assay [2], 20.3 µM (inactive); in assay [3], 53.3 µM (inactive); in assay [4], 4.4 µM (inactive); in assay [5], 0.619 µM; in assay [6] it was 16.1 µM (inactive). In addition, the GI50 in assay [7] was 0.979 µM (active); in [8], 23.2 µM (inactive); in assay [9] it was 9.62 µM (inactive); in assay [10] it was 2.92 µM (inactive); in assay [11] it was 5.66 µM (inactive); in assay [12] it was 2.08 µM (inactive). Further, the GI50 in [13] was 15.4 µM (inactive); in [14], 32.6 µM (inactive); in assay [15] it was 8.41 µM (inactive); in [16] it was 32.2 µM (inactive); in assay [17], 3.76 µM (inactive); in [18], 5.31 µM (inactive). The values for the GI50 in assay [19] and in assay [20] were 7 µM (inactive) and 8.67 µM (inactive), respectively.
Take `S=C(N/N=C(/c1ccccc1)c1ccccn1)N1CCCCCC1`: the GI50 is 0.198 µM (active) in assay [1]; < 0.0194 µM (active) in [2]; < 0.0306 µM (active) in assay [3]; < 0.0421 µM (active) in assay [4]; less than 0.0213 µM in assay [5]; < 0.0103 µM (active) in [6]. The GI50 in assay [7] was < 0.0374 µM (active); in assay [8], < 0.0214 µM (active); in assay [9], < 0.015 µM (active); in assay [10], 0.0843 µM (active); in assay [11] it was 0.308 µM (active); in assay [12], < 0.0252 µM (active). The GI50 was 0.564 µM (active) in [13]; < 0.027 µM (active) in assay [14]; 0.01 µM (active) in assay [15]; 0.0764 µM (active) in assay [16]; < 0.0198 µM (active) in assay [17]; 0.01 µM (active) in [18]. Further, the GI50 is 0.0538 µM (active) in assay [19] and 0.127 µM (active) in assay [20].
Regarding `O=C(/C=C/NC(=O)OCc1ccccc1)OCc1ccccc1`, the GI50 in assay [1] was 64.9 µM (inactive); in assay [2], > 100 µM (inactive); in assay [3], > 100 µM (inactive); in assay [4], > 100 µM (inactive); in assay [5], greater than 100 µM; in assay [6], > 100 µM (inactive). Also, the GI50 in assay [7], in assay [8], in assay [9], in [10], in assay [11] and in assay [12] was > 100 µM (inactive) each time. The GI50 in assay [13] was > 100 µM (inactive); in [14], 32.4 µM (inactive); in [15], > 100 µM (inactive); in [16] it was > 100 µM (inactive); in assay [17], > 100 µM (inactive); in assay [18], 28.1 µM (inactive). For the same compound, the GI50 in assay [19] and in [20] was > 100 µM (inactive) in each case.
With `N=C(N)NCCC[C@H]1NC(=O)[C@@H](CCC(=O)O)NC(=O)[C@@H](CC(=O)O)NC(=O)[C@@H](CCC(=O)O)NC(=O)[C@H](Cc2c[nH]c3ccccc23)NC1=O` (cyclo(W[dE][dD][dE][dR])), the GI50 in [1] is > 7.5 µM (inactive); in [2], > 7.5 µM (inactive); in assay [3], > 7.5 µM (inactive); in [4] it was > 7.5 µM (inactive); in assay [5], greater than 7.5 µM; in assay [6], > 7.5 µM (inactive). The GI50 in assay [7], in assay [8], in assay [9], in [10], in assay [11] and in assay [12] was > 7.5 µM (inactive) in each case. Further, the GI50 in assay [13] was > 7.5 µM (inactive); in assay [14], > 7.5 µM (inactive); in assay [15] it was > 7.5 µM (inactive); in assay [16], > 7.5 µM (inactive); in [17], 0.351 µM (active); in assay [18], > 7.5 µM (inactive). In addition, the GI50 in assay [19] and in assay [20] was > 7.5 µM (inactive) each time.
Take `Cc1c(-c2cnccn2)ssc1=S` [OLTIPRAZ]: the GI50 in assay [1] is 63.1 µM (inactive); in assay [2] it was > 100 µM (inactive); in assay [3], > 80.9 µM (inactive); in [4], 44 µM (inactive); in [5], 62.8 µM; in assay [6], 61.9 µM (inactive). The GI50 was 57.4 µM (inactive) in [7]; > 100 µM (inactive) in assay [8]; 24.5 µM (inactive) in assay [9]; 67.6 µM (inactive) in [10]; 68.1 µM (inactive) in assay [11]; 46 µM (inactive) in [12]. Also, the GI50 in [13] was 22 µM (inactive); in [14], 35.9 µM (inactive); in assay [15], 54.3 µM (inactive); in assay [16], > 100 µM (inactive); in assay [17] it was > 100 µM (inactive); in [18], 63.2 µM (inactive). Besides, the GI50 was 88.5 µM (inactive) in assay [19] and > 100 µM (inactive) in assay [20].
`NCCCCN` [PUTRESCINE HYDROCHLORIDE]: the GI50 is > 100 µM (inactive) in assay [1]; > 100 µM (inactive) in assay [2]; 16.3 µM (inactive) in assay [3]; > 100 µM (inactive) in assay [4]; greater than 100 µM in assay [5]; > 100 µM (inactive) in assay [6]. Also, the GI50 in assay [7], in assay [8], in assay [9], in [10], in [11] and in assay [12] was > 100 µM (inactive) in each case. For the same compound, the GI50 in [13], in [14], in [15], in assay [16], in [17] and in assay [18] was > 100 µM (inactive) each time. The results for the GI50 in assay [19] and in [20] were > 100 µM (inactive) and 19.4 µM (inactive), respectively.
